Measured values reported in the supplement of paper PMC10307832.

Experiments:
Assay in all cases: relative viability (nuclei count vs DMSO), 5 days (fraction); higher = more cells survive
[1] = compound: C1=CC2=NC=CN=C2C=C1/C=C/3\C(=O)NC(=O)S3 + CC1(C)CCC(c2ccc(Cl)cc2)=C(CN2CCN(c3ccc(C(=O)NS(=O)(=O)c4ccc(N[C@H](CCN5CCOCC5)CSc5ccccc5)c(S(=O)(=O)C(F)(F)F)c4)cc3)CC2)C1 [Navitoclax] (partner 0.5 µM)
Summary of the method: (§1)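 A single step with final 0.05% Triton X-100, 1% formaldehyde and 1 ug/ml Hoechst fixed the cells and stained nuclei 5 days after treatment. Lung cancer cell lines in 1536-well plates had been treated by pin tool the day after seeding with one drug alone or a fixed anchor-drug dose plus five library-drug doses (not always all listed) in √10 steps, and nuclei were counted on 4× images. Relative viability is the ratio of nuclei in treated wells to nuclei in vehicle wells, taken as the median of duplicate plates.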

BGJ398 = compound: CCN1CCN(c2ccc(Nc3cc(N(C)C(=O)Nc4c(Cl)c(OC)cc(OC)c4Cl)ncn3)cc2)CC1 [BGJ398]
Summary of the method: (§2)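 MetaXpress counted nuclei in 4× images of lung cancer cell lines that had been fixed, permeabilised and Hoechst-stained in one step. Before that, cells in 1536-well plates were kept overnight at 37 °C, pinned with five √10-spaced library-drug doses on vehicle-anchored plates, and cultured 5 days without medium change. Viability takes treated-well nuclei over vehicle-well nuclei and uses the median across plates. Plates were accepted only at control CV below 25% and at least one doubling.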

[2] = compound: C1=CC2=NC=CN=C2C=C1/C=C/3\C(=O)NC(=O)S3
Summary of the method: as §2

[3] = compound: C1=CC2=NC=CN=C2C=C1/C=C/3\C(=O)NC(=O)S3 + COc1cc2c(Oc3ccc(NC(=O)C4(C(=O)Nc5ccc(F)cc5)CC4)cc3F)ccnc2cc1OCCCN1CCOCC1 [Foretinib] (partner 0.25 µM)
Summary of the method: as §1

Cell Line | relative viability ([1]; first compound 0.02 µM) | relative viability ([1]; first compound 0.06325 µM) | relative viability ([1]; first compound 0.2 µM) | relative viability ([1]; first compound 0.6325 µM) | relative viability ([1]; first compound 2 µM) | relative viability (BGJ398; 0.01 µM) | relative viability (BGJ398; 0.03162 µM) | relative viability (BGJ398; 0.1 µM) | relative viability (BGJ398; 0.3162 µM) | relative viability (BGJ398; 1 µM) | relative viability ([2]; 0.02 µM) | relative viability ([2]; 0.06325 µM) | relative viability ([2]; 0.2 µM) | relative viability ([2]; 0.6325 µM) | relative viability ([2]; 2 µM) | relative viability ([3]; first compound 0.02 µM) | relative viability ([3]; first compound 0.06325 µM) | relative viability ([3]; first compound 0.2 µM) | relative viability ([3]; first compound 0.6325 µM) | relative viability ([3]; first compound 2 µM)
HCC-44 | 0.969 | 1.02 | 0.946 | 1.02 | 0.892 | 0.998 | 0.986 | 0.987 | 0.993 | 0.826 | 0.895 | 1.03 | 0.991 | 0.965 | 0.745 |  |  |  |  | 
HCC-827 | 0.999 | 1.01 | 1.03 | 1.08 | 1.03 | 0.932 |  | 1.01 | 0.962 | 1.04 | 0.989 | 0.984 | 1.02 | 1.04 | 1.05 | 1.09 | 1.05 | 1.02 | 0.95 | 1.04
NCI-H1623 |  |  |  |  |  | 1.08 | 0.805 | 1.05 | 0.908 | 1.03 | 0.936 | 0.806 | 0.909 | 0.957 | 0.786 | 0.756 | 0.855 | 0.953 | 0.82 | 0.799
NCI-H2347 | 0.756 | 0.443 | 0.904 | 0.863 | 0.734 | 0.957 | 1.09 | 1.06 | 1.04 | 0.94 | 0.971 | 0.913 | 1 | 1 | 0.918 | 0.843 | 0.77 | 0.948 | 0.86 | 0.634
PC-14 | 0.871 | 1 | 1 | 1 | 1.08 | 1.01 | 0.732 | 1.04 | 0.766 | 0.93 | 1.02 | 1.02 | 1.01 | 0.982 | 0.989 | 0.934 | 1.07 | 0.961 | 1.01 | 0.893
NCI-H1651 | 0.989 | 1.03 | 0.915 | 0.981 | 1.08 | 0.921 | 0.96 | 1.08 | 0.936 | 0.87 | 0.959 | 0.876 | 0.994 | 0.877 | 0.884 | 0.774 | 0.734 | 0.911 | 0.796 | 0.75
HARA | 1.1 | 1.11 | 1.17 | 1.16 | 1.09 | 1.02 | 0.788 | 0.821 | 0.719 | 0.602 | 0.84 | 0.992 | 0.945 | 0.778 | 0.955 | 0.857 | 0.83 | 0.888 | 0.841 | 1.02
NCI-H1563 |  |  |  |  |  | 0.992 | 0.993 | 0.936 | 0.831 | 0.701 | 1.06 | 0.93 | 1.11 | 0.822 | 1.12 | 0.901 | 0.979 | 0.914 | 0.895 | 0.943
ABC-1 |  |  |  |  |  | 0.891 | 0.988 | 0.902 | 0.816 | 0.927 | 0.977 | 0.987 | 0.893 | 0.931 | 0.526 | 0.93 | 1.24 | 0.875 | 1.27 | 0.999
SW 900 |  |  |  |  |  | 1 | 0.899 | 0.779 | 0.428 | 0.453 | 0.888 | 0.978 | 1.04 | 0.705 | 0.965 | 0.703 | 0.823 | 0.77 | 1.06 | 0.797
NCI-H1648 |  |  |  |  |  | 0.882 | 0.809 | 0.73 | 0.775 | 0.889 | 0.925 | 0.605 | 1.11 | 0.701 | 1 |  |  |  |  | 
NCI-H1792 | 0.597 | 0.621 | 0.564 | 0.658 | 0.401 | 0.903 | 0.851 | 0.704 | 0.811 | 0.652 | 0.956 | 0.783 | 0.927 | 0.857 | 0.411 |  |  |  |  | 
LCLC-103H |  |  |  |  |  | 0.984 | 0.903 | 1.06 | 0.792 | 0.79 | 0.957 | 1.05 | 0.969 | 0.918 | 0.852 | 0.864 | 0.711 | 0.813 | 0.653 | 0.648
NCI-H358 |  |  |  |  |  | 0.843 | 0.942 | 1.1 | 0.882 | 1.3 | 1.08 | 0.959 | 0.955 | 0.887 | 0.425 | 0.875 | 0.648 | 0.672 | 0.613 | 0.445
NCI-H2342 |  |  |  |  |  | 0.998 | 0.96 | 0.934 | 1.02 | 1.11 | 0.832 | 1.01 | 0.989 | 0.904 | 0.803 | 0.891 | 0.93 | 1.02 | 0.953 | 0.891
NCI-H522 |  |  |  |  |  | 0.918 | 0.89 | 1.04 | 0.82 | 0.874 | 0.934 | 1.13 | 1 | 0.75 | 0.751 |  |  |  |  | 
NCI-H650 |  |  |  |  |  | 0.883 | 1.21 | 1.02 | 1.03 | 0.665 | 0.951 | 1.04 | 1.07 | 0.914 | 0.529 | 1.01 | 1.09 | 1.04 | 1.08 | 0.711
NCI-H661 |  |  |  |  |  | 0.977 | 0.997 | 0.983 | 0.987 | 0.914 | 1.01 | 1.04 | 1.02 | 0.972 | 1.07 | 1 | 1.05 | 1.07 | 0.957 | 1.08
